Assay results reported in patent US8513230B2, “Nuclear transport modulators and uses thereof” (Karyopharm Therapeutics, Inc., priority 2010, dated 2013).

Experiments:
[1] = tested on: Human myeloma cell lines (H929); assay: Combination study with doxorubicin, apoptosis by anti-caspase-3 assay; format: cell-based; conditions: H929 cells, compound 16 hrs then doxorubicin 2 umol/L for 4 h
Experimental: Combinations studies with doxorubicin. Human myeloma cell lines (H929) grown at 2×10^6 cells/mL (high density) were incubated with and without Example 1 for 16 h followed by doxorubicin (2 umol/L; Sigma) for 4 h and assayed for apoptosis by anti-caspase-3 assay (BD Pharmingen).

[2] = tested on: HCT-116 xenografts; assay: HCT-116 xenograft growth and tolerability; format: in vivo
Experimental: FIG. 5 presents activity data for Example 1 (KPT-127) administered at 150 mg/kg QD×7. […] HCT-116 xenografts were grown to ˜150 mm^3 and low dose KPT-0127 administered. On day 9, when the tumors were ˜350 mm^3, KPT-127 dose was escalated to 150 mg/kg sc daily. Irinotecan was used as a control.

[3] = tested on: MM1.S xenografts; assay: MM1.S xenograft growth; format: in vivo
Experimental: FIG. 4 presents activity data for Example 1 (KPT-0127) administered at 150 mg/kg QD×5. […] (A) MM1.S cells were grown as xenografts to 130 mm^3 (small) or (B) 1350 mm^3 (large) sizes and were treated with KPT-0127 SC or dexamethasone IP daily×5 and growth was assessed. Treatment of large xenografts is ongoing (data shown after 5 doses of KPT-0127).

[4] = tested on: MM.1S, MM.1R, Jurkat and HS-Sultan cells; assay: Isobologram analysis of the interaction with Bortezomib; format: cell-based
Experimental: The MTT cell proliferation assay was used to study the cytotoxic properties of the compounds. The assay was performed according to the method described by Roche Molecular Biochemicals with minor modifications. The assay is based on the cleavage of the tetrazolium salt, MTT, in the presence of an electron-coupling reagent. The water-insoluble formazan salt produced must be solubilized in an additional step. Cells, grown in a 96-well tissue culture plate, are incubated with the MTT solution for approximately 4 hours. After this incubation period, a water-insoluble formazan dye is formed. After solubilization, the formazan dye is quantitated using a scanning multi-well spectrophotometer (ELISA reader). […] The cells were seeded at 1.5×10^4 cells in each well of 96-well plate in 200 μL of fresh culture medium and were allowed to attach for overnight. The stock solutions of the compounds were diluted in cell culture medium to obtain eight concentrations of each drug, ranging from 1 nM to 20 μM. After 72 h of treatment the medium was aspirated and the cells were washed once with sterile 1×PBS. […]
Tumor cells were assayed for viability in the absence or presence of drug/control treatments, and drug combination dose response studies were analyzed graphically by correlating the fraction of surviving cells with drug concentrations for each drug.r

[5] = tested on: normal cells; assay: Cytotoxicity assay (MTS), normal cells; format: cell-based; conditions: 72 hours exposure
[6] = tested on: panel of ~570 solid and hematologic cancer cell lines; assay: Cytotoxicity assay (CellTiter 96 AQueous One Solution, MTS) in cancer cell line panel; format: cell-based; conditions: 72 hours exposure, IC50 determined by MTS assay
Experimental: Cytotoxicity Assay (CellTiter 96® AQueous One Solution Cell Proliferation Assay) Cells were seeded into 96-well plates and compounds at the indicated concentrations were added to the cells after overnight incubation. Seventy two hrs later the proliferation assay was done in the following way: Twenty microliters of CellTiter 96® AQueous One Solution Reagent was added into each well. After 1 hour at 37° C. in a humidified, 5% CO2 atmosphere, the absorbance at 490 nm was recorded using an ELISA plate reader. Test compound was assayed in numerous cancer cell lines using the above assay protocol. Results are depicted in FIG. 3.

[7] = target: T1, Crm1 (Homo sapiens, UniProt O14980); assay: Rev-GFP nuclear export inhibition assay (U2OS-RevGFP cells); format: cell-based; conditions: ~1 hr incubation with compound, read-out: Rev Export (%)/[IC50] OR Cytotoxicity[EC50]
T1 construct: endogenous in cells; host or cells: U2OS-RevGFP cells
T1 sequence (O14980 whole entry): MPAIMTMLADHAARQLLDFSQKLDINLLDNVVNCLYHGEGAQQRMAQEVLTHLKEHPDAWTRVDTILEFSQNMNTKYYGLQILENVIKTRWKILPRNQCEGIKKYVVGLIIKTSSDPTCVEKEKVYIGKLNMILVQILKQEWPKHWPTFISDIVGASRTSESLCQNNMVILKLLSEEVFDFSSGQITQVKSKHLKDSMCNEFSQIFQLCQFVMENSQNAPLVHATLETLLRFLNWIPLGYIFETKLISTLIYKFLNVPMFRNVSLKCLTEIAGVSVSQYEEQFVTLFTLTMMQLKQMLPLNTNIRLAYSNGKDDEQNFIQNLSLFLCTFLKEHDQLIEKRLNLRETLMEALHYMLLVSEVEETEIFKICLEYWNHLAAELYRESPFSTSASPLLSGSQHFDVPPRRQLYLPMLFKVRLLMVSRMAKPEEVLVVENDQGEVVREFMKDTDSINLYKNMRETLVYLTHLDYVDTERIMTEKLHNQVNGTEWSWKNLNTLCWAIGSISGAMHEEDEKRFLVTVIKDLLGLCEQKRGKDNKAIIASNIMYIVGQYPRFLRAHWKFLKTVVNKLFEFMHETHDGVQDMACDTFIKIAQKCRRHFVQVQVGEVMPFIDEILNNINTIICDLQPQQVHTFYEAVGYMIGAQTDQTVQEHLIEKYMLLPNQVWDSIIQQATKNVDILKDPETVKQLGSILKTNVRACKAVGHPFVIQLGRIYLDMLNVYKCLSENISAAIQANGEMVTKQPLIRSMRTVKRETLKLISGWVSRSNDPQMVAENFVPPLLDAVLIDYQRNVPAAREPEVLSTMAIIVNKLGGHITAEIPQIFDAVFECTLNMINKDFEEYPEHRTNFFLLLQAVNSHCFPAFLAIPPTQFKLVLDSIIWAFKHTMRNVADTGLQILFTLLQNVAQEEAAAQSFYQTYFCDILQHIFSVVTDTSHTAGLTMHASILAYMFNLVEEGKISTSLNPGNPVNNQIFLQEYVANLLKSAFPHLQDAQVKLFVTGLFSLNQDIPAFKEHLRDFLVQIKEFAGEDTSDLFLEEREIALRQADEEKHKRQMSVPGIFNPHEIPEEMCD
Experimental: The evaluation of the affinity of compounds for the Crm1 protein was determined in the RevGFP assay.
Experimental protocol: Rev is a protein from human immunodeficiency virus type 1 (HIV-1) and contains a nuclear export signal (NES) in its C-terminal domain and a nuclear localization signal (NLS) in its N-terminal domain. Nuclear export of Rev protein is dependent on the classical NES/Crm1 pathway (Neville et al, 1997). Nuclear accumulation of Rev can be observed in cells treated with specific inhibitors of Crm1, such as LMB (Kau et al, 2003). In this assay, U2OS-RevGFP cells are seeded onto clear-bottom, black, 384-well plates the day before the experiment. Compounds are serially diluted 1:2 starting from 40 μM in a separate 384-well plate in DMEM, and then transferred onto cells. Cells are incubated with compound for ˜1 hr before fixation with 3.7% formaldehyde and nuclei staining with Hoechst 33258. The amount of GFP in cell nuclei will be measured and compound IC50s determined (Kau et al, 2003).

CC(C)OC(=O)/C=C\n1cnc(-c2cccc(Cl)c2)n1 [Example 1, (Z)-3-[3-(3-Chloro-phenyl)-[1,2,4]-triazol-1-yl]-acrylic acid isopropyl ester]
sensitization to Topo II inhibitor Doxorubicin (apoptosis) [1]: sensitizes non-Cyclin resistant Myeloma H929 cells to Topo II inhibitor Doxorubicin
growth of moderate HCT-116 xenografts ([2]; 150 mg/kg QD×7, low dose from ~150 mm^3, escalated on day 9 (~350 mm^3) to 150 mg/kg sc daily): inhibits moderate HCT-116 xenografts
tolerability ([2]; 150 mg/kg sc daily): well tolerated
clinical chemistries and CBCs ([2]; HCT-116 xenograft study): not significantly affected
growth of small MM1.S xenografts ([3]; 150 mg/kg QD×5 SC, xenografts grown to 130 mm^3): inhibits growth
growth of large MM1.S xenografts ([3]; 150 mg/kg SC, xenografts 1300 mm^3, data after 5 doses, treatment ongoing): inhibits growth
interaction with Bortezomib (isobologram analysis) [4]: synergistic interactions with Bortezomib
effect on normal cells [5]: minimal effect on normal cells
cytotoxicity in hematologic and solid tumor cell lines [6]: potent and selective cytotoxicity

CC(C)OC(=O)/C=C\n1cnc(-c2cc(C(F)(F)F)cc(S(C)(=O)=O)c2)n1 [Example 67, (Z)-isopropyl 3-(3-(3-(methylsulfonyl)-5-(trifluoromethyl)phenyl)-1H-1,2,4-triazol-1-yl)acrylate]
IC50 [7]: < 1 µM

CCOC(=O)/C=C\n1cnc(-c2cc(F)cc(Cl)c2)n1 [Example 82, 3-[3-(3-Chloro-5-fluoro-phenyl)-[1,2,4]triazol-1-yl]-acrylic acid ethyl ester]
IC50 [7]: 1 to 10 µM

CC(C)N(C)C(=O)/C=C\c1n[nH]c(-c2cccc(Cl)c2)n1 [Example 95, 3-[5-(3-Chloro-phenyl)-1H-[1,2,4]triazol-3-yl]-N-isopropyl-N-methyl-acrylamide]
IC50 [7]: > 10 µM
